# Results published in patent US20240000977A1, “METHODS AND KITS FOR DIAGNOSING AND TREATING CANCERS” (Baruch S. Blumberg Institute, priority 2020, published 2024).
# Assays:
# DACH1^+/+ 3T3 cells = assay: BrdU / propidium iodide flow cytometry of S-phase cells after WEE1 inhibition; format: cell-based; conditions: Wt (DACH1^+/+) 3T3 cells, Adavosertib 10 μM, 24 h, 20 μM BrdU pulse 30 min; mean of 4 experiments
# Method: (§1) DACH1 deficiency was determined to promote accumulation of non-proliferative S-phase cells by WEE1 kinase inhibitors. DACH1^+/+ and DACH1^−/− 3T3 cells were treated for 24 h with Adavosertib at 10 μM, a small molecule inhibitor of the tyrosine kinase WEE1, or with DMSO, as the control (see FIGS. 18A and 18B). Prior to harvest, the 3T3 cells were pulsed with 20 μM BrdU for 30 min at a temperature of 37° C. to enable detection of cells with active DNA replication. After harvesting the 3T3 cells, the 3T3 cells were stained with propidium iodide (DNA content) and an anti-BrdU antibody (Abcam). […] Representative FACS plots are shown (see FIGS. 19A-19E). […] Data is shown as mean±SEM for 4 separate experiments.
# DACH1^−/− 3T3 cells = assay: as above; format: cell-based; conditions: 24 h
# Method: as §1
# SETD2−/− cells = conditions: cited from earlier work
# [1] = test system: H3K36me3-deficient tumor xenografts; conditions: cited from earlier work
# L1210 leukemia = conditions: murine L1210 leukemia, single agent; cited from earlier work
Molecule,non-proliferating S-phase population (DACH1^+/+ 3T3 cells),BrdU incorporation upon inhibition of WEE1 kinase (DACH1^−/− 3T3 cells; 10 μM),"non-proliferating S-phase population (DACH1^−/− 3T3 cells; Adavosertib 10 μM, 20 μM BrdU pulse 30 min, mean of 4 experiments)",sensitivity of cells (SETD2−/− cells),effect on tumor xenografts [1],"antileukemic effects, agent given alone (L1210 leukemia)"
C=CCn1c(=O)c2cnc(Nc3ccc(N4CCN(C)CC4)cc3)nc2n1-c1cccc(C(C)(C)O)n1 [Adavosertib],13.8%,failed to incorporate the BrdU,38.3%,hypersensitive,regresses,
"IL-12: IL-12 proteins, cytokine used in chemo-immunotherapy",,,,,,moderate antileukemic effects
